Entries after “also recorded” stand apart in the source; their conditions may differ. Read-outs that look alike come from different tables or passages of the source.
Key:
[1] = system: peripheral blood lymphocytes; settings: high concentrations of prednisolone, cited from earlier work
[2] = system: steroid-resistant asthma; settings: after 8 weeks; cited from earlier work
[3] = system: PHA stimulated peripheral blood lymphocytes; assay: PHA-induced lymphocyte proliferation (tritiated thymidine uptake), basiliximab in the absence of steroids; format: cell-based, human; settings: for PHA-induced cell proliferation (cpm) / Inhibition (%): basiliximab 1 mg/l, absence of steroids; for Inhibition (%): vs PHA alone
Experimental: (§1) Measurement of lymphocyte steroid sensitivity: The sensitivity of peripheral blood lymphocytes to glucocorticoids is assessed in a functional assay i.e. an in vitro proliferation assay stimulated by phytohaemagglutinin (PHA) and inhibited by dexamethasone. (Hearing S D, et al. Gut 1999; 45:382-8; Hearing S D, et al. J Clin Endocrinol Metab 1999; 84:4149-54). Peripheral blood samples are collected at 09:00 hours, and peripheral blood mononuclear cells (PBMC) are separated by buoyancy centrifugation. Buoyancy centrifugation includes the separation of lymphocytes from the blood sample by centrifugation over a ficol gradient. Ficol allows red blood cells to fall through, but prevents the through-movement of lymphocytes. Peripheral blood mononuclear cells (lymphocytes and marocyes) are collected from the ficol/plasma interface. PBMC proliferation is stimulated with PHA and inhibited with dexamethasone at serial 10 fold dilutions between 10^−6 and 10^−10 mol/1. i.e. 10^−6, 10^−7, 10^−8, 10^−9, 10^−10 mol/1. Cell proliferation is measured by tritiated thymidine uptake i.e. after 2 days of incubation, radioisotape labelled thymidine (^3H-thymidine) is added to the lymphocyte culture medium and became incorporated into the DNA of proliferating lymphocyes. After 6 hours the cells are transferred from the incubator and collected on a filter mat using a cell harvester. The cells are then washed out of the well. The lymphocyte DNA that has incorporated the thymidine is trapped in the filter paper. When radioactivity levels are measured the wells which contain high numbers of actively proliferating lymphocytes (and thus will have incorporated lots of thymidine into the DNA) will have high radioactivity levels. […] The results are calculated as mean counts per minute (cpm) of triplicate cultures. Thymidine incorporation for each concentration of dexamethasone is compared to that of PHA stimulated T lymphocytes in the absence of dexamethasone, and expressed as a percentage of the uninhibited positive control. The effect of different concentrations of basiliximab on lymphocyte proliferation is also studied. In addition, an equal concentration of basiliximab is added to each cell culture medium at all concentrations of dexamethasone and the antiproliferative effect measured.
Effect of […]® on lymphocyte proliferation: Serum concentration of 0.2 mg/l of basiliximab produces >90% IL-2R occupancy. To test the antiproliferative in vitro effect of basiliximab, various concentrations of between 0.01 and 10 mg/l of basiliximab are incubated with lymphocytes in the absence of steroids. These assays confirm that an in vitro concentration of >0.1 to 0.3 mg/l basiliximab is required to produce the in vitro effect of basiliximab. For further studies on the same subjects, a concentration of 1 mg/l is used. In total, the same eight subjects are studied in each experiment. The effect of basiliximab at a concentration of 1 mg/l on PHA-induced cell proliferation in the absence of steroids is shown in Table 1

[4] = system: PHA-stimulated lymphocytes; assay: Lymphocyte steroid sensitivity: dexamethasone inhibition of PHA-stimulated proliferation with and without basiliximab (Example 1); format: cell-based, human; settings: for Steroid-sensitive (SS) or Steroid-resistant (SR): class by Imax with dexamethasone alone; for PHA-stimulated lymphocyte proliferation (cpm): dexamethasone 10^-6 mol/l; for PHA-stimulated lymphocyte proliferation (cpm) / % suppression / Imax (%): basiliximab 1 mg/l where added; for % suppression: dexamethasone 10^-7 mol/l; for Imax (%): inhibition of proliferation at dexamethasone 10^-6 mol/l
Experimental: as §1
Effect of […]® on steroid sensitivity: For all eight subjects, PHA-stimulated lymphocytes are cultured in the presence of increasing concentrations of dexamethasone (10^−10-10^−6 mol/l) in the presence and absence of basiliximab (1 mg/l). In previous studies of ulcerative colitis carried out by the inventor, maximal suppression (Imax)<60% correlated with a poor response to steroid therapy (clinical steroid resistance). The exact value of Imax cannot be measured as it is the inhibition at an infinitely high level of dexamethasone. Thus, the percentage inhibition of proliferation observed at the maximum dexamethasone concentration applied (10^−6 mol/l) is used as the measure of Imax. In practice, there is good agreement between Imax and the estimated asymptotic value for maximal inhibition obtained from dose-response curves (Hearing S D et al (1999) Clin. Endoctrinol. Metab 84:4149-54). A concentration of dexamethasone of 10^−7 mol/l is approximately equivalent in terms of glucocorticoid activity to the serum concentrations of hydrocortisone achieved with intravenous therapy at standard doses. Thus, to make comparisons with the potential effect of basiliximab in vivo, the steroid sensitising effect of basiliximab at this concentration of dexamethasone may also be of interest. […] The subjects are shown in decreasing order of steroid sensitivity (with the most sensitive on the left).

[5] = system: phytohaemagglutinin stimulated lymphocytes; assay: Lymphocyte steroid sensitivity (Imax) with and without basiliximab, 32 subjects (Example 2); format: cell-based, human
Experimental: Peripheral blood lymphocytes are isolated from 32 subjects (25 healthy volunteers and 7 patients with quiescent Ulcerative Colitis), on 41 occasions, using buoyant density centrifugation. Lymphocyte steroid sensitivity is assessed by measuring the antiproliferative effect of dexamethasone (DEX) on phytohaemagglutinin stimulated lymphocytes. Maximum steroid induced suppression is expressed as a % of control lymphocyte proliferation (Imax). Imax is measured in the absence and presence of basiliximab (1 mg/L).

[6] = molecular target: T1, IL-2R (Homo sapiens, UniProt P01589); settings: serum concentration of 0.2 mg/l; cited from earlier work
T1 sequence (P01589 22-272): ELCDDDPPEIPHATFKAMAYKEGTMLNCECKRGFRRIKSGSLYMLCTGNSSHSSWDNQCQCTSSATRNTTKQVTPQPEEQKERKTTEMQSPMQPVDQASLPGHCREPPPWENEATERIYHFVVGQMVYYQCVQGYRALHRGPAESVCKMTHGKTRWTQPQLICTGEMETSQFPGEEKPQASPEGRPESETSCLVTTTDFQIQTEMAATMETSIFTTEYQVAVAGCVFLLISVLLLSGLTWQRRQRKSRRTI

[7] = at the dosage levels employed; cited from earlier work
[8] = system: ulcerative colitis; settings: chronically active, steroid-resistant or steroid-dependant ulcerative colitis; cited from earlier work

Compound: C[C@]12C=CC(=O)C=C1CC[C@@H]1[C@@H]2[C@@H](O)C[C@@]2(C)[C@H]1CC[C@]2(O)C(=O)CO [prednisolone]
- percentage of apoptotic cells ([1]; lymphocytes of steroid-resistant SLE group): 44.8%
- percentage of apoptotic cells ([1]; lymphocytes of steroid-sensitive SLE group): 68.8%

Compound: CN(Cc1cnc2nc(N)nc(N)c2n1)c1ccc(C(=O)N[C@@H](CCC(=O)O)C(=O)O)cc1 [methotrexate]
- bronchial muscosal inflammation [2]: reduced
- lymphocyte steroid sensitivity [2]: increased

Compound: basiliximab
- in vitro concentration required to produce the in vitro (antiproliferative) effect ([3]; 0.01 to 10 mg/l incubated with lymphocytes in the absence of steroids): 0.1 to 0.3 mg/L
- PHA-induced cell proliferation (cpm) ([3]; mean of 8 subjects): 23943 cpm
- Inhibition (%) ([3]; mean of 8 subjects): 37.8%
- PHA-induced cell proliferation (cpm) ([3]; subject 1): 21827 cpm
- Inhibition (%) ([3]; subject 1): 43.5%
- PHA-induced cell proliferation (cpm) ([3]; subject 2): 15157 cpm
- Inhibition (%) ([3]; subject 2): 39.9%
- PHA-induced cell proliferation (cpm) ([3]; subject 3): 27239 cpm
- Inhibition (%) ([3]; subject 3): 33.3%
- PHA-induced cell proliferation (cpm) ([3]; subject 4): 27538 cpm
- Inhibition (%) ([3]; subject 4): 15.4%
- PHA-induced cell proliferation (cpm) ([3]; subject 5): 21446 cpm
- Inhibition (%) ([3]; subject 5): 52.8%
- PHA-induced cell proliferation (cpm) ([3]; subject 6): 35003 cpm
- Inhibition (%) ([3]; subject 6): 47.1%
- PHA-induced cell proliferation (cpm) ([3]; subject 7): 16122 cpm
- Inhibition (%) ([3]; subject 7): 44.2%
- PHA-induced cell proliferation (cpm) ([3]; subject 8): 27209 cpm
- Inhibition (%) ([3]; subject 8): 26.4%
- Modulation of lymphocyte steroid sensitivity (LSS) of steroid-resistant subjects ([4]; effect on Imax, subjects 5-8, basiliximab 1 mg/l): all become Steroid-sensitive
- Enhancement of the anti-proliferative effect of DEX ([5]; basiliximab 1 mg/L, Wilcoxon signed-rank test, p<0.0001): significantly enhanced; also recorded: marked in vitro steroid enhancing effect
- Modulation of steroid-resistant subjects (Imax<60%) to steroid-sensitive ([5]; in vitro, basiliximab 1 mg/L): All 8 steroid-resistant subjects (Imax<60%) are modulated (in vitro) to steroid-sensitive
- IL-2R occupancy [6]: > 90%
- Side-effects / safety of administration [7]: safe

Compound: daclizumab
- Side-effects / safety of administration [7]: safe

Compound: C[C@@H]1C[C@H]2[C@@H]3CCC4=CC(=O)C=C[C@]4(C)[C@@]3(F)[C@@H](O)C[C@]2(C)[C@@]1(O)C(=O)CO [Dexamethasone, dexamethasone]
- Steroid-sensitive (SS) or Steroid-resistant (SR) ([4]; subject 1): SS (steroid-sensitive (Imax>60%; subjects 1-4))
- PHA-stimulated lymphocyte proliferation (cpm) ([4]; subject 1): 3100 cpm
- % suppression ([4]; subject 1): 87%
- Imax (%) ([4]; subject 1): 92%
- Steroid-sensitive (SS) or Steroid-resistant (SR) ([4]; subject 2): SS (steroid-sensitive (Imax>60%; subjects 1-4))
- PHA-stimulated lymphocyte proliferation (cpm) ([4]; subject 2): 4109 cpm
- % suppression ([4]; subject 2): 79%
- Imax (%) ([4]; subject 2): 84%
- Steroid-sensitive (SS) or Steroid-resistant (SR) ([4]; subject 3): SS (steroid-sensitive (Imax>60%; subjects 1-4))
- PHA-stimulated lymphocyte proliferation (cpm) ([4]; subject 3): 9477 cpm
- % suppression ([4]; subject 3): 65%
- Imax (%) ([4]; subject 3): 77%
- Steroid-sensitive (SS) or Steroid-resistant (SR) ([4]; subject 4): SS (steroid-sensitive (Imax>60%; subjects 1-4))
- PHA-stimulated lymphocyte proliferation (cpm) ([4]; subject 4): 11568 cpm
- % suppression ([4]; subject 4): 42%
- Imax (%) ([4]; subject 4): 64%
- Steroid-sensitive (SS) or Steroid-resistant (SR) ([4]; subject 5): SR (steroid-resistant (Imax<60%; subjects 5-8))
- PHA-stimulated lymphocyte proliferation (cpm) ([4]; subject 5): 21685 cpm
- % suppression ([4]; subject 5): 20%
- Imax (%) ([4]; subject 5): 52%
- Steroid-sensitive (SS) or Steroid-resistant (SR) ([4]; subject 6): SR (steroid-resistant (Imax<60%; subjects 5-8))
- PHA-stimulated lymphocyte proliferation (cpm) ([4]; subject 6): 36495 cpm
- % suppression ([4]; subject 6): 32%
- Imax (%) ([4]; subject 6): 45%
- Steroid-sensitive (SS) or Steroid-resistant (SR) ([4]; subject 7): SR (steroid-resistant (Imax<60%; subjects 5-8))
- PHA-stimulated lymphocyte proliferation (cpm) ([4]; subject 7): 18669 cpm
- % suppression ([4]; subject 7): 29%
- Imax (%) ([4]; subject 7): 35%
- Steroid-sensitive (SS) or Steroid-resistant (SR) ([4]; subject 8): SR (steroid-resistant (Imax<60%; subjects 5-8))
- PHA-stimulated lymphocyte proliferation (cpm) ([4]; subject 8): 24681 cpm
- % suppression ([4]; subject 8): 36%
- Imax (%) ([4]; subject 8): 33%
- Median Imax (%) ([5]; 32 subjects on 41 occasions, basiliximab 1 mg/L where added): 78.0%

Compound: Cn1cnc([N+](=O)[O-])c1Sc1ncnc2nc[nH]c12 [Azathioprine]
- delayed onset of action [8]: 34 months

— patent US20090274691A1, “Use of CD25 binding molecules in steroid-resistant patients” (priority 2001, published 2009)
